According to patent US20260317356A1, “SMALL MOLECULE MODULATORS OF OGG1” (AZKARRA THERAPEUTICS, INC., priority 2023, published 2026):

target: hOGG1 (Homo sapiens, UniProt O15527); assay: Biochemical fluorescence assay to measure enzymatic activity of hOGG1 (OGG1/APEX IC50); set-up: Protein His-hOGG1 (12-323) was prepared; His (N); host or cells: E. coli; details: 1 nM OGG1+2 nM APEX+6 nM dsDNA (8-oxo-dG substrate); pH 7.5; RT 40 min; read-out: OGG1/APEX IC50
Outline: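 Coupled glycosylase/AP-endonuclease read-out: 8-oxo-dG-containing dsDNA (6 nM) cleaved by 1 nM His-hOGG1 (12-323) plus 2 nM APEX1 over 40 min at room temperature, after 20 min enzyme–compound preincubation; buffer 20 mM Tris pH 7.5, 100 mM KCl, 0.1% BSA, 0.01% Tween. IC50 comes from sigmoidal 3-parameter fitting of % inhibition derived from TAMRA signal.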

hOGG1, sequence (O15527 12-323): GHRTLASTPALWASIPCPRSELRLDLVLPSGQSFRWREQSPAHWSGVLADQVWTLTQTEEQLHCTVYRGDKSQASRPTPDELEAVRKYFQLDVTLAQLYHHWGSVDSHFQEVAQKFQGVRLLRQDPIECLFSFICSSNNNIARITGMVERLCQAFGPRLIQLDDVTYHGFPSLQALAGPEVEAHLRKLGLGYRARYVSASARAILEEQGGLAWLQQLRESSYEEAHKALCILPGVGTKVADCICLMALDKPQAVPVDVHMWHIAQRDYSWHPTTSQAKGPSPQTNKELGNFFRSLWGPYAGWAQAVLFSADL

Q: For `COc1cc(NC(=O)[C@]2(C)CC[C@@H](N3Cc4c(C)cccc4C3=O)CC2)ccc1C` [Example 278, (1r,4r)-N-(3-methoxy-4-methylphenyl)-1-methyl-4-(4-methyl-1-oxoisoindolin-2-yl)cyclohexane-1-carboxamide], which IC50 is on record?
A: The IC50 was 1 to 10 µM.

Q: How did the IC50 turn out when `Cc1ccc(NC(=O)[C@H]2CC[C@@H](N3Cc4c(C)cccc4C3=O)CC2)c(O)c1` [Example 230, (1s,4s)-N-(2-Hydroxy-4-methylphenyl)-4-(4-methyl-1-oxoisoindolin-2-yl)cyclohexanecarboxamide] was run?
A: The IC50 was 1 to 10 µM.

Q: Which IC50 does the source give for `COc1cc(NC(=O)[C@H]2CC[C@H](N3Cc4c(C)cc(NCCN(C)C)cc4NC3=O)CC2)ccc1C` [Example 85, (1r,4r)-4-(7-(2-(dimethylamino)ethylamino)-5-methyl-2-oxo-1,2-dihydroquinazolin-3(4H)-yl)-N-(3-methoxy-4-methylphenyl)cyclohexanecarboxamide] here?
A: Its IC50 is 0.1 to 1 µM.

Q: For `COc1cc(NC(=O)[C@@H]2CC[C@@H](N3Cc4c(C)cc(Br)cc4NC3=O)C2)ccc1C` [Example 36, (1R,3R)-3-(7-Bromo-5-methyl-2-oxo-1,2-dihydroquinazolin-3(4H)-yl)-N-(3-methoxy-4-methylphenyl)cyclopentanecarboxamide], which IC50 is on record?
A: The IC50 was 1 to 10 µM.

Q: With `COc1cc(NC(=O)[C@H]2CC[C@@H](N3Cc4c(C)ccc(CNS(C)(=O)=O)c4NC3=O)CC2)ccc1C` [Example 24, (1s,4s)-N-(3-Methoxy-4-methylphenyl)-4-(5-methyl-8-(methylsulfonamidomethyl)-2-oxo-1,2-dihydroquinazolin-3(4H)-yl)cyclohexanecarboxamide] as the compound, how does the IC50 read?
A: Its IC50 is under 0.1 µM.

Q: `COc1ccc(NC(=O)[C@H]2CC[C@@H](N3Cc4c(C)cccc4C3=O)CC2)cc1Cl` [Example 238, (1s,4s)-N-(3-Chloro-4-methoxyphenyl)-4-(4-methyl-1-oxoisoindolin-2-yl)cyclohexanecarboxamide] was tested. Which IC50 did it give?
A: Its IC50 is 0.1 to 1 µM.

Q: For `COc1ccc(NC(=O)[C@]2(C)CC[C@H](N3Cc4c(C)cccc4NC3=O)CC2)cc1C#N` (single isomer, unassigned) [Example 107, (1s,4s)-N-(3-cyano-4-methoxyphenyl)-1-methyl-4-(5-methyl-2-oxo-1,2-dihydroquinazolin-3(4H)-yl)cyclohexanecarboxamide], which IC50 is on record?
A: The IC50 was under 0.1 µM.

Q: Which IC50 does the source give for `COc1cc(NC(=O)[C@H]2CC[C@@H](N3Cc4c(C)ccc(CO)c4NC3=O)CC2)ccc1C` [Example 54, (1s,4s)-4-(8-(Hydroxymethyl)-5-methyl-2-oxo-1,2-dihydroquinazolin-3(4H)-yl)-N-(3-methoxy-4-methylphenyl)cyclohexanecarboxamide] here?
A: Its IC50 is under 0.1 µM.

Q: With `COc1cc(NC(=O)[C@H]2CC[C@@H](N3Cc4c(C)cc(O)cc4NC3=O)CC2)ccc1C` [Example 77, (1s,4s)-4-(7-hydroxy-5-methyl-2-oxo-1,2-dihydroquinazolin-3(4H)-yl)-N-(3-methoxy-4-methylphenyl)cyclohexanecarboxamide] as the compound, how does the IC50 read?
A: The IC50 was under 0.1 µM.

Q: With `COc1cc(NC(=O)[C@H]2CC[C@@H](N3Cc4c(C)cccc4C3=O)CC2)ccc1Cl` [Example 223, (1s,4s)-N-(4-Chloro-3-methoxyphenyl)-4-(4-methyl-1-oxoisoindolin-2-yl)cyclohexanecarboxamide] as the compound, how does the IC50 read?
A: Its IC50 is 0.1 to 1 µM.

Q: With `COc1ccc(NC(=O)[C@H]2CC[C@@H](N3Cc4c(C)cc(NCCN(C)C)cc4C3=O)CC2)cc1F` [Example 257, (1s,4s)-4-(6-(2-(Dimethylamino)ethylamino)-4-methyl-1-oxoisoindolin-2-yl)-N-(3-fluoro-4-methoxyphenyl)cyclohexanecarboxamide] as the compound, how does the IC50 read?
A: Its IC50 is under 0.1 µM.

Q: `COc1cc(NC(=O)[C@H]2CC[C@@H](N3Cc4c(Br)cc([N+](=O)[O-])cc4C3=O)CC2)ccc1C` [Example 163, (1s,4s)-4-(4-Bromo-6-nitro-1-oxoisoindolin-2-yl)-N-(3-methoxy-4-methylphenyl)cyclohexanecarboxamide] was tested. Which IC50 did it give?
A: Its IC50 is 0.1 to 1 µM.

Q: Which IC50 does the source give for `CCOC(=O)c1ccc2c(c1)CN([C@H]1CC[C@@H](C(=O)Nc3ccc(C)c(OC)c3)CC1)C2=O` [Example 171, Ethyl 2-((1s,4s)-4-(3-methoxy-4-methylphenylcarbamoyl)cyclohexyl)-1-oxoisoindoline-5-carboxylate] here?
A: The IC50 was over 10 µM.

Q: For `COc1cc(NC(=O)[C@H]2CC[C@@H](N3Cc4c(Br)cncc4C3=O)CC2)ccc1C` [Example 183, (1s,4s)-4-(7-bromo-3-oxo-1H-pyrrolo[3,4-c]pyridin-2(3H)-yl)-N-(3-methoxy-4-methylphenyl)cyclohexanecarboxamide], which IC50 is on record?
A: Its IC50 is 0.1 to 1 µM.

Q: With `COc1cc(NC(=O)[C@H]2CC[C@@H](N3Cc4c(C)cc(CO)cc4NC3=O)CC2)ccc1C` [Example 81, (1s,4s)-4-(7-(hydroxymethyl)-5-methyl-2-oxo-1,2-dihydroquinazolin-3(4H)-yl)-N-(3-methoxy-4-methylphenyl)cyclohexanecarboxamide] as the compound, how does the IC50 read?
A: Its IC50 is under 0.1 µM.

Q: Which IC50 does the source give for `COc1cc(NC(=O)[C@]2(C)CC[C@H](N3Cc4c(C)cccc4NC3=O)CC2)ccc1C` (single isomer, unassigned) [Example 101, (1s,4s)-N-(3-methoxy-4-methylphenyl)-1-methyl-4-(5-methyl-2-oxo-1,2-dihydroquinazolin-3(4H)-yl)cyclohexanecarboxamide] here?
A: The IC50 was under 0.1 µM.

Q: With `COc1c(F)cc(NC(=O)[C@H]2CC[C@@H](N3Cc4c(C)cccc4C3=O)CC2)cc1F` [Example 243, (1s,4s)-N-(3,5-Difluoro-4-methoxyphenyl)-4-(4-methyl-1-oxoisoindolin-2-yl)cyclohexanecarboxamide] as the compound, how does the IC50 read?
A: Its IC50 is 0.1 to 1 µM.

Q: Which IC50 does the source give for `Cc1cccc2c1CN([C@H]1CC[C@@H](C(=O)Nc3ccc(O)cc3)CC1)C2=O` [Example 229, (1s,4s)-N-(4-Hydroxyphenyl)-4-(4-methyl-1-oxoisoindolin-2-yl)cyclohexanecarboxamide] here?
A: The IC50 was 1 to 10 µM.

Q: With `COc1ncc(NC(=O)[C@H]2CC[C@@H](N3Cc4c(C)cccc4C3=O)CC2)cc1Cl` [Example 221, (1s,4s)-N-(5-Chloro-6-methoxypyridin-3-yl)-4-(4-methyl-1-oxoisoindolin-2-yl)cyclohexanecarboxamide] as the compound, how does the IC50 read?
A: The IC50 was 0.1 to 1 µM.

Q: How did the IC50 turn out when `COc1cc(NC(=O)[C@H]2CC[C@@H](N3Cc4c(ccnc4C)NC3=O)CC2)ccc1C` [Example 43, (1s,4s)-N-(3-Methoxy-4-methylphenyl)-4-(5-methyl-2-oxo-1,2-dihydropyrido[4,3-d]pyrimidin-3(4H)-yl)cyclohexanecarboxamide] was run?
A: The IC50 was under 0.1 µM.

Q: With `COc1cccc(NC(=O)[C@H]2CC[C@@H](N3Cc4c(C)cccc4C3=O)CC2)n1` [Example 233, (1s,4s)-N-(6-Methoxypyridin-2-yl)-4-(4-methyl-1-oxoisoindolin-2-yl)cyclohexanecarboxamide] as the compound, how does the IC50 read?
A: Its IC50 is 1 to 10 µM.

Q: Which IC50 does the source give for `CCc1cccc2c1CN([C@H]1CC[C@@H](C(=O)Nc3ccc(C)c(OC)c3)CC1)C(=O)N2` [Example 72, (1s,4s)-4-(5-ethyl-2-oxo-1,2-dihydroquinazolin-3(4H)-yl)-N-(3-methoxy-4-methylphenyl)cyclohexanecarboxamide] here?
A: The IC50 was 0.1 to 1 µM.

Q: How did the IC50 turn out when `COc1ccc(NC(=O)[C@H]2CC[C@@H](N3Cc4c(C)cccc4C3=O)CC2)cc1F` [Example 224, (1s,4s)-N-(3-Fluoro-4-methoxyphenyl)-4-(4-methyl-1-oxoisoindolin-2-yl)cyclohexanecarboxamide] was run?
A: Its IC50 is 0.1 to 1 µM.

Q: Which IC50 does the source give for `Cc1cccc2c1CN([C@H]1CC[C@@H](C(=O)Nc3ccc(Cl)cc3)CC1)C2=O` [Example 216, (1s,4s)-N-(4-Chlorophenyl)-4-(4-methyl-1-oxoisoindolin-2-yl)cyclohexanecarboxamide] here?
A: The IC50 was 0.1 to 1 µM.

Q: `COc1cc(NC(=O)N2CCC(N3Cc4c(Br)cccc4C3=O)CC2)ccc1C` [Example 181, 4-(4-Bromo-1-oxoisoindolin-2-yl)-N-(3-methoxy-4-methylphenyl)piperidine-1-carboxamide] was tested. Which IC50 did it give?
A: The IC50 was 1 to 10 µM.

Q: With `COc1cccc(NC(=O)[C@H]2CC[C@@H](N3Cc4c(C)cccc4C3=O)CC2)c1` [Example 245, (1s,4s)-N-(3-Methoxyphenyl)-4-(4-methyl-1-oxoisoindolin-2-yl)cyclohexanecarboxamide] as the compound, how does the IC50 read?
A: The IC50 was 1 to 10 µM.

Q: For `COc1cc(NC(=O)[C@H]2CC[C@@H](N3Cc4c(C)cc(CN5CC[C@@H](O)C5)cc4C3=O)CC2)ccc1C` [Example 137, (1S,4s)-4-(6-(((R)-3-Hydroxypyrrolidin-1-yl)methyl)-4-methyl-1-oxoisoindolin-2-yl)-N-(3-methoxy-4-methylphenyl)cyclohexanecarboxamide], which IC50 is on record?
A: Its IC50 is under 0.1 µM.

Q: Which IC50 does the source give for `COc1cc(NC(=O)[C@H]2CC[C@@H](N3Cc4c(Br)cc(NC(C)C(C)O)cc4C3=O)CC2)ccc1C` (some centres unmarked) [Example 178, (1s,4s)-4-(4-Bromo-6-(3-hydroxybutan-2-ylamino)-1-oxoisoindolin-2-yl)-N-(3-methoxy-4-methylphenyl)cyclohexanecarboxamide] here?
A: The IC50 was 1 to 10 µM.

Q: How did the IC50 turn out when `COc1cc(NC(=O)[C@H]2CC[C@@H](N3Cc4c(ccc(Br)c4C)NC3=O)CC2)ccc1C` [Example 63, (1s,4s)-4-(6-bromo-5-methyl-2-oxo-1,2-dihydroquinazolin-3(4H)-yl)-N-(3-methoxy-4-methylphenyl)cyclohexanecarboxamide] was run?
A: Its IC50 is 1 to 10 µM.

Q: `COc1cc(NC(=O)[C@H]2CC[C@@H](N3C(=O)c4c(C)ccc(C)c4C3=O)CC2)ccc1C` [Example 253, (1s,4s)-4-(4,7-Dimethyl-1,3-dioxoisoindolin-2-yl)-N-(3-methoxy-4-methylphenyl)cyclohexanecarboxamide] was tested. Which IC50 did it give?
A: The IC50 was 0.1 to 1 µM.

Q: How did the IC50 turn out when `COc1cc(NC(=O)[C@H]2CC[C@@H](N3Cc4c(cccc4C(F)(F)F)NC3=O)CC2)ccc1C` [Example 70, (1s,4s)-N-(3-methoxy-4-methylphenyl)-4-(2-oxo-5-(trifluoromethyl)-1,2-dihydroquinazolin-3(4H)-yl)cyclohexanecarboxamide] was run?
A: Its IC50 is 0.1 to 1 µM.

Q: How did the IC50 turn out when `C=C(C)c1cccc2c1CN([C@H]1CC[C@@H](C(=O)Nc3ccc(C)c(OC)c3)CC1)C2=O` [Example 157, (1s,4s)-N-(3-Methoxy-4-methylphenyl)-4-(1-oxo-4-(prop-1-en-2-yl)isoindolin-2-yl)cyclohexanecarboxamide] was run?
A: The IC50 was over 10 µM.
